Earlier results, collected in patent US8828453B2, “Herbal-based compositions for alleviating symptoms associated with autism” (priority 2010, dated 2014).

Test system: newborn murine brain

## CCCCC/C=C\C/C=C\C/C=C\C/C=C\CCCC(=O)NCCO [anandamide]
  protection against excitotoxic damage: protected the newborn murine brain against excitotoxic damage
